# Like-named read-outs stand apart in the source and are kept apart here.
# Experiments:
# [1] = target: xanthine oxidase (Bos taurus, UniProt P80457); assay: xanthine oxidase inhibitory activity (absorbance at 290 nm, xanthine substrate); type: biochemical; conditions: for Relative intensity: relative to 1.00 (XOI-A and allopurinol), from concentration for 50% inhibitory rate; for activity compared with known xanthine oxidase inhibitors allopurinol, luteolin / activity compared with quercetin: as seen from Table 1; for Total activity: purification from Perilla frutescens (3.73 kg fresh weight); for Total activity / Specific activity: 1 U = activity required for inhibiting 50% of xanthine oxidase; for Specific activity: purification from Perilla frutescens
# Sequence of xanthine oxidase (P80457 whole entry): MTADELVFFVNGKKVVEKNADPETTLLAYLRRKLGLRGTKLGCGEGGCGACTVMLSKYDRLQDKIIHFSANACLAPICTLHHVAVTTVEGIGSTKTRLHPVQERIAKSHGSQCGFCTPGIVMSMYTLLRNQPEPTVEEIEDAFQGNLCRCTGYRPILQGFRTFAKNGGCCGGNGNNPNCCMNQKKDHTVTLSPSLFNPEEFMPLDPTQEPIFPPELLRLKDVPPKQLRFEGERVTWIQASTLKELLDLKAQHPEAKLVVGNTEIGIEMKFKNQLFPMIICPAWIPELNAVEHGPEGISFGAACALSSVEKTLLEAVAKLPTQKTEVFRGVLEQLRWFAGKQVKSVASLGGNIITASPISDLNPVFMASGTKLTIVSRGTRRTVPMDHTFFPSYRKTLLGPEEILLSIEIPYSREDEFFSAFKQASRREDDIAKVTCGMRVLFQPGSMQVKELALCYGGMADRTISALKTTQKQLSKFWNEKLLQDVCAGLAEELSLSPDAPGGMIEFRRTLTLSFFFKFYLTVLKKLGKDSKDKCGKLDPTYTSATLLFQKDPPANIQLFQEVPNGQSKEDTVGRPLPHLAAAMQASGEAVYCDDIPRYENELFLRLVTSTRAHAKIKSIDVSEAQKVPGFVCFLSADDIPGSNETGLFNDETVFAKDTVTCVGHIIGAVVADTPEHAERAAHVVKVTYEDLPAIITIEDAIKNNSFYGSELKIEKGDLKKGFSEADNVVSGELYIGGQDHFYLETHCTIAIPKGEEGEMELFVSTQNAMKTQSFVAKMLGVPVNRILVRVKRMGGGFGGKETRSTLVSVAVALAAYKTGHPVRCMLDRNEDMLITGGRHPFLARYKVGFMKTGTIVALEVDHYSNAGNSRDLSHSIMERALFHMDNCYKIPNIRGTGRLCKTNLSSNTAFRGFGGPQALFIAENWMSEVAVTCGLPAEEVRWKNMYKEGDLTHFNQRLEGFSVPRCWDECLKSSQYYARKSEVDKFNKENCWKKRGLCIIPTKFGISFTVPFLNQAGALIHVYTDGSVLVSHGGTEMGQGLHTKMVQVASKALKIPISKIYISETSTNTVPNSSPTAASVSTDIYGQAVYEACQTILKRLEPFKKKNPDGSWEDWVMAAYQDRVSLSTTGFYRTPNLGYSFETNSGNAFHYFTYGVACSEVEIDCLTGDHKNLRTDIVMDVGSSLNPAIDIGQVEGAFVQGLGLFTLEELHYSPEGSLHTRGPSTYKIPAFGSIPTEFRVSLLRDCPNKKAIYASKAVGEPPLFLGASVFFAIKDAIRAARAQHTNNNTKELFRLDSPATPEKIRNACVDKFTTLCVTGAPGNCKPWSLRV
# Experimental: This xanthine oxidase inhibitory activity can be determined, for example, as follows:
# Enzyme solution: An enzyme solution is prepared by dissolving 150 μl of xanthine oxidase (15.2 units/ml) in 10 ml of 1/15 M phosphate buffer (pH 7.5).
# Substrate solution: A substrate solution is prepared by heating 22.8 mg of xanthine in 1 liter of water to dissolve it.
# Determination: 0.1 ml of the enzyme solution and 2.9 ml of phosphate buffer (the same as that described above) are admixed with 1.0 ml of the sample solution and the mixture is incubated at 37° C. for 10 minutes.
# Then, 1 ml of the substrate solution preincubated at 37° C. is added to this reaction mixture and, after reaction for 30 minutes, an absorbance at 290 nm (D1) is measured.
# Separately, an absorbance at 290 nm (D2) of a reaction mixture obtained by the similar reaction procedure using a heat inactivated enzyme, an absorbance (D3) without addition of the sample solution, and absorbance (D4) of a reaction mixture obtained by using a heat-inactivated enzyme without addition of the sample solution are measured. By using the values obtained by these measurements, the inhibitory rate of xanthine oxidase is calculated by using the following equation:
# Inhibitory Rate (%)={1-(D1 -D2)/(D3 -D4 }×100
# In Table 2, 1 U represents the activity required for inhibiting 50% of xanthine oxidase.
# [2] = solubility in solvents; type: physicochemical
# [3] = xanthine oxidase, pH 7.5, 37° C., reaction for 30 minutes, read-out: Concentration for 50% inhibitory rate (converted)
Structure (SMILES),IC50 [1] [nM],Relative intensity [1],"solubility in methanol, propanol, acetone, ethyl acetate or acetonitrile [2]","solubility in water, chloroform or hexane [2]","activity compared with known xanthine oxidase inhibitors allopurinol, luteolin [1]",activity compared with quercetin [1],Total activity [1],Specific activity [1] [μ/mg],"Specific activity, figure in parentheses (relative to ethanol extract = 1) ([1]; purification step)","Total activity, figure in parentheses (relative to ethanol extract = 100) ([1]; purification step, ethanol extract = 100)","IC50 [1, 3] [nM]"
"O=c1cc(-c2ccc(O)c(O)c2)oc2cc(O)cc(O)c12 [Luteolin, luteolin, reference compound]",384,0.19,–,–,–,–,–,–,–,–,–
"O=C(/C=C/c1ccc(O)c(O)c1)O/C=C\c1ccc(O)c(O)c1 [XOI-A, (Z,E)-2-(3,4-dihydroxyphenyl)ethenylester of 3-(3,4-dihydroxyphenyl)-2-propenoic acid]",–,–,readily soluble,slightly soluble,comparable to that of allopurinol,superior to that of quercetin,1.96 × 10^6 (U),46600,222,6,66.8
"O=C(/C=C/c1ccc(O)c(O)c1)O/C=C\c1cc(O)cc(O)c1 [XOI-B, (Z,E)-2-(3,5-dihydroxyphenyl)ethenylester of 3-(3,4-dihydroxyphenyl)-2-propenoic acid]",–,0.17,readily soluble,slightly soluble,almost the same as that of luteolin,superior to that of quercetin,0.09 × 10^6 (U),8040,38,–,395
